Data published in patent US20250248998A1, “LRRK2 Inhibitors” (Brenig Therapeutics, Inc., priority 2022, published 2025).

What was measured:
LRRK2[G2019S] [1] = target: T1, LRRK2[G2019S] (Homo sapiens, UniProt Q5S007, G2019S); test: Cell-based NanoBRET target engagement assay in HEK293 cells transfected with LRRK2 (G2019S)-NanoLuc fusion vector; parameters: expressed in transfected cells; host or cells: HEK293 (ATCC); settings: compound treatment 1 h
How it was run: (§1)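 HEK293 cells transiently transfected with NanoLuc-fused LRRK2 WT or G2019S (1 μg) plus carrier DNA, treated 1 h with compound (10-dose, 3-fold dilution from 1 μM). Target engagement read by NanoBRET; IC50 fitted only when signal at top concentration was below 5500.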
Target sequence in this assay (Q5S007 whole entry G2019S, the tested form may be a part): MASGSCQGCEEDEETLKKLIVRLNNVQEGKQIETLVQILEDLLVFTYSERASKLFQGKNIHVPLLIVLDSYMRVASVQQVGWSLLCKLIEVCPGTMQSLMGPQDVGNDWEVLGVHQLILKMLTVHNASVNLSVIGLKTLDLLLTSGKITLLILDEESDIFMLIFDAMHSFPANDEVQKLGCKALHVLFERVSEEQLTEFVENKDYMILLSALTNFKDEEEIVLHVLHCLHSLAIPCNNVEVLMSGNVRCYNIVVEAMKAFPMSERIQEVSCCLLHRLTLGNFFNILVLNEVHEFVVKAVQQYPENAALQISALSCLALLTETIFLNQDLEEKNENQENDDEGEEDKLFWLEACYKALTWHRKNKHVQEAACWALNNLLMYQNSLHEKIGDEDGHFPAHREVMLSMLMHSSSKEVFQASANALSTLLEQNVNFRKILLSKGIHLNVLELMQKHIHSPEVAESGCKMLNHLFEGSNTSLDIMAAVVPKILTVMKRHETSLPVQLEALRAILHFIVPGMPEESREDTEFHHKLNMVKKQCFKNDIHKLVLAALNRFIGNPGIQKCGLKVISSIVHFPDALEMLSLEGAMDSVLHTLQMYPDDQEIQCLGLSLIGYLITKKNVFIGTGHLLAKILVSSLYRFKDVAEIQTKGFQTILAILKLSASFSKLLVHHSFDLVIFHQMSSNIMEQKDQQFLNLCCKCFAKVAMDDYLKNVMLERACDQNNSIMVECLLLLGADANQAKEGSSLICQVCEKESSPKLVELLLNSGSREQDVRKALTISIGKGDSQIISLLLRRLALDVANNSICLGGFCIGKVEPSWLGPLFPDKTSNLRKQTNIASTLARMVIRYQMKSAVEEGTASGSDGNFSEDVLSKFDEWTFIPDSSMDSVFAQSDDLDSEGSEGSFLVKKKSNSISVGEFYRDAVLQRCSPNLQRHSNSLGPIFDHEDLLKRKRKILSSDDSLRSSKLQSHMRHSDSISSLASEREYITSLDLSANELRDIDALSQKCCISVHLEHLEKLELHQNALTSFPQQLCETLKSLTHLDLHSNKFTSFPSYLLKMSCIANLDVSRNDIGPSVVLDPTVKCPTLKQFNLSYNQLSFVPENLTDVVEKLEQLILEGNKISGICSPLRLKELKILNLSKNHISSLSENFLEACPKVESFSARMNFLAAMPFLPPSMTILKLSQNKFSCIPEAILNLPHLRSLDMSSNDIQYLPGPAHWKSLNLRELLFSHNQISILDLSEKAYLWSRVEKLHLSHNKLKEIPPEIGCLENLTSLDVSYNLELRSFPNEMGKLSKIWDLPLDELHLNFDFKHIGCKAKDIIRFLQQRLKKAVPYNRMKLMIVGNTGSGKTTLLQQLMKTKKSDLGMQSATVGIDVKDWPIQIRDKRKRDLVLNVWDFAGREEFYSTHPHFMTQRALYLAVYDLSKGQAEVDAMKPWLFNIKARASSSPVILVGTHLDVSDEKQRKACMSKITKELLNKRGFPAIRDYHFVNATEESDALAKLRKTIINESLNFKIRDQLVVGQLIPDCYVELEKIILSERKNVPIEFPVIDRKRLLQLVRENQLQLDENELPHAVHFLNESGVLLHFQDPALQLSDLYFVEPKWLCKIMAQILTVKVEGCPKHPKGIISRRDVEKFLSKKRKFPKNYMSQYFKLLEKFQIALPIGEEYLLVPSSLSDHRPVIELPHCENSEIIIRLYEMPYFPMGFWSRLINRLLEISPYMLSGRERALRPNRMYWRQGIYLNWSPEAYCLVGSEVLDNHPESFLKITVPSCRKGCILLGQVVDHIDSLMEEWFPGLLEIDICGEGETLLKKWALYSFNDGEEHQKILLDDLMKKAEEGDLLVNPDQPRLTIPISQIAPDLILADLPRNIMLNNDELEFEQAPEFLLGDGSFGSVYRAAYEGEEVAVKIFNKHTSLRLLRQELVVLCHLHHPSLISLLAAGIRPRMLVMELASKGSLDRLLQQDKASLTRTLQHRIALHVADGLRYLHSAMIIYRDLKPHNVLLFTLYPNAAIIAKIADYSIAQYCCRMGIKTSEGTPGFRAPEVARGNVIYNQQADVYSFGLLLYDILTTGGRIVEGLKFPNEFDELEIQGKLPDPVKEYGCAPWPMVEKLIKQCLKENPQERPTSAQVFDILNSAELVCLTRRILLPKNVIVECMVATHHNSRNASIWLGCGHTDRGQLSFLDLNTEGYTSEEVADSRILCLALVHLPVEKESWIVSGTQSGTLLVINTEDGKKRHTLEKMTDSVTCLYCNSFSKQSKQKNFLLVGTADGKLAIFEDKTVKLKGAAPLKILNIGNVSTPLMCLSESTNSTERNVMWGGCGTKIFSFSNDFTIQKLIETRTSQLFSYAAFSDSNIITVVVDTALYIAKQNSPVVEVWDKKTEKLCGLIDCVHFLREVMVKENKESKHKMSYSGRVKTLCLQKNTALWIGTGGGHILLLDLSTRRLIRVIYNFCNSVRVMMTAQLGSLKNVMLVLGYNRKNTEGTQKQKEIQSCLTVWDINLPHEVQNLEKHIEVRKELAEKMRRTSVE

LRRK2 WT [2] = target: T2, LRRK2 WT (Homo sapiens, UniProt Q5S007); test: Enzymatic activity inhibition against LRRK2 WT (ADP-Glo kinase assay, LRRKtide substrate); type: biochemical; parameters: purchased SignalChem Biotech, Inc. L10-11G-10; settings: recombinant LRRK2 WT 36 nM, ATP, 1 h at rt, average Ki
Protocol: Example B. Primary Assays Used to Determine Potency of the LRRK2 Inhibition
Assay for Determining Enzymatic Activity Inhibition Against LRRK2 WT.
Compound activity was determined using recombinant LRRK2 WT protein (SignalChem Biotech, Inc., Cat #L10-11G-10) and LRRKtide substrate (SignalChem Biotech, Inc., Cat #L10-58) in an in vitro enzymatic reaction. The enzymatic reaction was carried out in assay buffer (40 mM TRIS-HCl pH 7.4, 20 mM MgCl2, 0.05 mM DTT, 0.1 mg/mL BSA). The compounds were dispensed into a 384 well Diamond Well Plate (Axigen, Cat #P-384-120SQ-C-S) using the Biomek FX liquid handling system at 80× solutions of compounds in DMSO. The 2× Protein-Substrate mix (final concentration 36 nM of LRRK2 WT and 0.8 μg/μL of LRRKtide) was prepared in the 1× Assay buffer and 4 μL of mixture per well was added into the 384-well white Reaction plate with NBS (Corning, Cat #CLS4513). The 4 μL of LRRKtide substrate w/o LRRK2 WT in the 1× buffer was used for a negative control. Plates were centrifuged for 1 min at 200 g. Next the compounds were added to Reaction plate using Biomek station via following steps: 1 μL of 80× compounds (in DMSO) were mixed thoroughly with 39 μL of 2×10 μM ATP in Assay Buffer, then 4 μL of this mixture was added to Reaction plate with 4 μL of Protein-Substrate mix. Plates were centrifuged for 1 min at 200 g and incubated for 1 hour at rt. Then, 4 μL per well of ADP-Glo reagent (Promega, ADP-Glo™ Kinase Assay, Cat #V9102) was added. Plates were incubated for 30 minutes at rt. Then, 8 μL per well of Kinase detection reagent (Promega, ADP-Glo™ Kinase Assay, Cat #V9102) was added and the luminescence signal was measured with a microplate reader. The % inhibition was then used to calculate the Ki values. The average Ki values are shown in Table B, wherein “A” corresponds to Ki<10.0 nM, “B” corresponds to 10.0 nM K Ki<20.0 nM, “C” 20.0 nM K Ki<50.0 nM, “D” corresponds to 50.0 nM K Ki<100.0 nM and “E” corresponds to Ki>100.0 nM.
Target sequence in this assay (Q5S007 970-2527 limits assumed): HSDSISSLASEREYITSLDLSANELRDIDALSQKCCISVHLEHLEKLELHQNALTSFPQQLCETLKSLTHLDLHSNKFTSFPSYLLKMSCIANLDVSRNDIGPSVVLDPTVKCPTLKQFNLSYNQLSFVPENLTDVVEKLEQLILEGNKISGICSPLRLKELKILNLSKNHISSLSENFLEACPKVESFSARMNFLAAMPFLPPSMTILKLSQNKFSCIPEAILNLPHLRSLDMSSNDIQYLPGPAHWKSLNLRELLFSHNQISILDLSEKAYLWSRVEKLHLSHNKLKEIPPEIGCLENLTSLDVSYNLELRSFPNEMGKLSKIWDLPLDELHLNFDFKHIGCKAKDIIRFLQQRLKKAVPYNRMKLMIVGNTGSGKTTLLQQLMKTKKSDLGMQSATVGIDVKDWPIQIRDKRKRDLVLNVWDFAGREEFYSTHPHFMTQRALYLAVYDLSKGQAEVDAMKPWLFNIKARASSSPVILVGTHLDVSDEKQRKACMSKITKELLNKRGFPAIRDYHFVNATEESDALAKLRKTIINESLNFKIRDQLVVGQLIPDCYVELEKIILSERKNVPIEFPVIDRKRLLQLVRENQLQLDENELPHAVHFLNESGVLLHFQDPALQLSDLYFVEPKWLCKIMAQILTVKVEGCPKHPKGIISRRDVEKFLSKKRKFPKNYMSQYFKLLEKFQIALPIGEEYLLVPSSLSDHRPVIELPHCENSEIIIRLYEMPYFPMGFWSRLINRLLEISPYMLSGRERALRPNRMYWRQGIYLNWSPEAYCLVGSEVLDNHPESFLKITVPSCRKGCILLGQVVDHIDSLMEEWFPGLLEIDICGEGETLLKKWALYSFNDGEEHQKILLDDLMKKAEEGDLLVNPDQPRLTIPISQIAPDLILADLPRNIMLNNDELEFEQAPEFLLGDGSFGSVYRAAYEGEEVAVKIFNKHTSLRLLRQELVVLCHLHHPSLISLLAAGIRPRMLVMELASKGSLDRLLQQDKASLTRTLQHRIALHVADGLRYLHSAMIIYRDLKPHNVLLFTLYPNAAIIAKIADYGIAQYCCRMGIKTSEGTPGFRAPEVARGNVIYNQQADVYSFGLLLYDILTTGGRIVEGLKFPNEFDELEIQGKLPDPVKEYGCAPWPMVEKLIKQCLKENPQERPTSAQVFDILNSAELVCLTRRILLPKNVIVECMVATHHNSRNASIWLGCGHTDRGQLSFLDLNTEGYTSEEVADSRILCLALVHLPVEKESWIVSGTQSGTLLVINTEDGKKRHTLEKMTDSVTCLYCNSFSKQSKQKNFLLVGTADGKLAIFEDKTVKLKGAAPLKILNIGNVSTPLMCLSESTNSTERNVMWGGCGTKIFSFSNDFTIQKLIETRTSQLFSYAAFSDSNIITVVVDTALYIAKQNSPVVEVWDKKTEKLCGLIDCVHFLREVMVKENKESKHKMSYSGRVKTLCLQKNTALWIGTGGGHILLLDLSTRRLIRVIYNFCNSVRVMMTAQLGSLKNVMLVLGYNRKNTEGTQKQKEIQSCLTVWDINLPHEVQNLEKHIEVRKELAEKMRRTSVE

[3] = A549 cytotoxicity assay (CellTiter-Glo); type: cell-based; settings: human, A549 cells, 3 days of incubation
Protocol: Example D. A549 Cytotoxicity Assay Used to Determine Safety of the LRRK2 Inhibitors
A549 (ATCC, CCL-185) cells were seeded at a density of 4000 cells per well in a 384-well clear bottom plate (Greiner Cat #781090) in 45 μL total volume of the complete cell culture medium DMEM (PanEco, Cat #C420, Russia) with 10% FBS (HyClone Cat #SV30160.03). The cells were allowed to adhere overnight at 37° C., 5% CO2. The 500× compounds solutions in DMSO (Sigma Cat #D2650) were prepared in the compounds plate (Diamond Well Plate, Axigen, Cat #P-384-120SQ-C-S) and DMSO as a vehicle control was included. The 1 μL aliquot of 500× compounds (Compounds plate) was added to the 49 μL culture medium in the Dilution plate (Diamond Well Plate, Axigen, Cat #P-384-120SQ-C-S), mixed and then the 5 μL aliquots of the 10× compounds solutions was transferred to cells followed by centrifugation at 100 g for 1 min. Final DMSO concentration was 0.2%. After 3 days of incubation the 10 μL per well of CellTiter-Glo (Promega, CAT #G7572) was added to the cells, plate was centrifuged at 100 g for 1 min. The luminescence signal was detected with CLARIOstar Plus (BMG LABTECH) microplate reader.

LRRK2 WT [4] = target: T2, LRRK2 WT; test: Cell-based NanoBRET target engagement assay in HEK293 cells transfected with LRRK2 WT-NanoLuc fusion vector; parameters: expressed in transfected cells; host or cells: HEK293 (ATCC); settings: compound treatment 1 h
How it was run: as §1
Target sequence in this assay (Q5S007 whole entry): as the sequence (Q5S007 whole entry G2019S, the tested form may be a part) above, with S2019G counted along it

LRRK2[G2019S] [5] = target: T1, LRRK2[G2019S]; test: Enzymatic activity inhibition against LRRK2[G2019S] (ADP-Glo kinase assay, LRRKtide substrate); type: biochemical; parameters: purchased SignalChem Biotech, Inc. L10-12GG-10; settings: recombinant LRRK2[G2019S] 36 nM, ATP, 1 h at rt, average Ki
Protocol: Example A. Primary Assays Used to Determine Potency of the LRRK2 Inhibition
Assay for Determining Enzymatic Activity Inhibition Against LRRK2[G2019S].
Compound activity was determined using recombinant LRRK2[G2019S] protein (SignalChem Biotech, Inc., Cat #L10-12GG-10) and LRRKtide substrate (SignalChem Biotech, Inc., Cat #L10-58) in an in vitro enzymatic reaction. The enzymatic reaction was carried out in assay buffer (40 mM TRIS-HCl pH 7.4, 20 mM MgCl2, 0.05 mM DTT, 0.1 mg/mL BSA). The compounds were dispensed into a 384 well Diamond Well Plate (Axigen, Cat #P-384-120SQ-C-S) using the Biomek FX liquid handling system at the 80× solutions of compounds in DMSO. The 2× Protein-Substrate mix (final concentration 36 nM of LRRK2[G2019S] and 0.8 μg/μL of LRRKtide) was prepared in 1× Assay buffer and 4 μL of mixture per well was added into the 384-well white Reaction plate with NBS (Corning, Cat #CLS4513). The 4 μL of LRRKtide substrate w/o LRRK2[G2019S] in the 1× buffer was used for a negative control. Plates were centrifuged for 1 min at 200 g. Next the compounds were added to the reaction plate using Biomek station via following steps: 1 μL of 80× compounds (in DMSO) were mixed thoroughly with 39 μL of 2×10 μM ATP in Assay Buffer, then 4 μL of this mixture was added to Reaction plate with 4 μL of Protein-Substrate mix. Plates were centrifuged for 1 min at 200 g and incubated for 1 h at rt. Then, 4 μL per well of ADP-Glo reagent (Promega, ADP-Glo™ Kinase Assay, Cat #V9102) was added. Plates were incubated for 30 min at rt. Then, 8 μL per well of Kinase detection reagent (Promega, ADP-Glo™ Kinase Assay, Cat #V9102) was added and the luminescence signal was measured with a microplate reader. The luminescence signal was detected with CLARIOstar Plus (BMG LABTECH) microplate reader. The % inhibition was then used to calculate the Ki values. The average Ki values are shown in Table A, wherein “A” corresponds to Ki<5.0 nM, “B” corresponds to 5.0 nM≤Ki<10.0 nM, “C” 10.0 nM≤Ki<50.0 nM, “D” corresponds to 50.0 nM≤Ki<100.0 nM and “E” corresponds to Ki>100.0 nM.
Target sequence in this assay (Q5S007 970-2527 G2019S limits assumed): as the sequence (Q5S007 970-2527 limits assumed) above, with G1050S counted along it

Row | IC50 (LRRK2[G2019S] [1]) [nM] | Ki (LRRK2 WT [2]) [nM] | IC50 (LRRK2 WT [4]) [nM] | Ki (LRRK2[G2019S] [5]) [nM] | Compound | CC50 at 3 days [3] [nM]
1 | ≤ 50 | ≤ 10 | ≤ 50 | ≤ 5 | Cn1nc(-c2n[nH]c3ccc(OC4(C)CC4)cc23)cc(N2CC(C)(C)C3COCC32)c1=O (stereo not shown) [Compound 48, 4-(3,3-dimethyl-3a,4,6,6a-tetrahydro-2H-furo[3,4-b]pyrrol-1-yl)-2-methyl-6-[5-(1-methylcyclopropoxy)-1H-indazol-3-yl]pyridazin-3-one] | > 10000
2 | ≤ 50 | ≤ 10 | ≤ 50 | ≤ 5 | C[C@@H]1CN(c2cc(-c3n[nH]c4ccc(OC5(C)CC5)cc34)nn(C)c2=O)C[C@H](C)O1 [Compound 50, 4-[(2S,6R)-2,6-dimethylmorpholin-4-yl]-2-methyl-6-[5-(1-methylcyclopropoxy)-1H-indazol-3-yl]pyridazin-3-one] | > 10000
3 | ≤ 50 | ≤ 10 | ≤ 50 | ≤ 5 | Cn1nc(-c2n[nH]c3ccc(OC4(C)CC4)cc23)cc(N2CCCC(F)(F)C2)c1=O [Compound 54, 4-(3,3-difluoro-1-piperidyl)-2-methyl-6-[5-(1-methylcyclopropoxy)-1H-indazol-3-yl]pyridazin-3-one] | > 10000

Row | Compound | IC50 (LRRK2[G2019S] [1]) [nM] | Ki (LRRK2 WT [2]) [nM] | IC50 (LRRK2 WT [4]) [nM] | Ki (LRRK2[G2019S] [5]) [nM] | CC50 at 3 days [3] [nM]
4 | Cn1nc(-c2n[nH]c3ccc(OC4(C)CC4)cc23)cc(N2CCOCC3(CC3)C2)c1=O [Compound 52, 2-methyl-6-[5-(1-methylcyclopropoxy)-1H-indazol-3-yl]-4-(5-oxa-8-azaspiro[2.6]nonan-8-yl)pyridazin-3-one] | ≤ 50 | ≤ 10 | ≤ 50 | ≤ 5 | > 10000
5 | Cn1nc(-c2n[nH]c3ccc(OC4(C)CC4)cc23)cc(N2CCC3(CCC3)C2)c1=O [Compound 56, 4-(6-azaspiro[3.4]octan-6-yl)-2-methyl-6-[5-(1-methylcyclopropoxy)-1H-indazol-3-yl]pyridazin-3-one] | ≤ 50 | ≤ 10 | ≤ 50 | ≤ 5 | > 10000
